According to patent US8372594B2, “Secreted phospholipase A2 biomarkers for arthritis” (Case Western Reserve University, priority 2009, dated 2013):

Columns and labels:
[1] = system: several sPLA2 isoforms; experiment: inhibition of several sPLA2 isoforms; format: biochemical
[2] = target: T1, sPLA2-IIA (Homo sapiens, UniProt P14555); experiment: inhibition of sPLA2-IIA activity; format: biochemical; settings: finding of the present invention
T1 sequence (P14555 21-144): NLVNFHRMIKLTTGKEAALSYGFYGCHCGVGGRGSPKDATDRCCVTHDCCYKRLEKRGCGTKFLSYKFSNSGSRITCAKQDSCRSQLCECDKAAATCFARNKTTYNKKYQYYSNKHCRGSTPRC

SMILES | inhibition of the activity of several sPLA2 isoforms [1] | preferential inhibition of sPLA2-IIA [2]
CCc1c(C(=O)C(N)=O)c2c(OCC(=O)O)cc3ccccc3c2n1Cc1ccccc1 [R0050907A] | inhibits the activity of several sPLA2 isoforms | 
CCc1c(C(=O)C(N)=O)c2c(OC)cc3ccccc3c2n1Cc1ccccc1 [R0032107A] |  | preferentially inhibit sPLA2-IIA
CCc1c(C(=O)C(N)=O)c2c(OCC(=O)O)cccc2n1Cc1ccccc1 [Compound B] |  | preferentially inhibit sPLA2-IIA
